The source of these data is patent US5929093A, “Bifunctional acetylcholinesterase reactivators” (priority 1997, dated 1999).

The assay deals with T1, human red blood cell AChE (Homo sapiens, UniProt P22303).
T1 construct: human red blood cell AChE; from tissue; host or cells: human red blood cells
Briefly: AChE reactivation assay with echothiophate-inhibited human red blood cell AChE. In kind it is biochemical. The following applies: for activation at 1 µM: read-out: Percentages of AChE reactivation.

[1] abbreviates: single concentration 10^-6 M, added for 1 hour, AChE inhibited by echothiophate 10^-7 M, means ± standard errors of 4 measurements.

T1 sequence (P22303 other isoform, or with tags, fused parts or gaps): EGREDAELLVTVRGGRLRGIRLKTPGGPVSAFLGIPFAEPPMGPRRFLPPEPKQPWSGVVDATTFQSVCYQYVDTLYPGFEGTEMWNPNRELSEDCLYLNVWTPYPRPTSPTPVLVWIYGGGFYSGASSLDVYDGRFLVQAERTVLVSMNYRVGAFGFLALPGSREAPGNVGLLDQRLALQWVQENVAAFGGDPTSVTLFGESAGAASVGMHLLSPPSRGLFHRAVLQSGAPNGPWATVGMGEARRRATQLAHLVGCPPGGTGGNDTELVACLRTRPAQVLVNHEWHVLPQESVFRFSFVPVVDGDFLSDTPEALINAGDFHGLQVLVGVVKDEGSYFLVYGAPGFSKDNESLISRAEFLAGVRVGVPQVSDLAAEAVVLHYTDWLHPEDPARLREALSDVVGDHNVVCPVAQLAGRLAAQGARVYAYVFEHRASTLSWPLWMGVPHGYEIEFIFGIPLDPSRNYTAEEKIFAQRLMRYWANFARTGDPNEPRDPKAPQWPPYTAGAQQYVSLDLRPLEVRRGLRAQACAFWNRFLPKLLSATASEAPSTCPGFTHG

Take `ON=Cc1cc[n+](CCCCCC[n+]2ccc(C=NO)cc2)cc1` [Compound 1a, 1,6-Hexylene-bis-N,N'-4-pyridiniumaldoxime dibromide]: the activation at 1 µM under setting [1] is 47 ± 1.8%. As to `ON=Cc1cc[n+](CCCCCCC[n+]2ccc(C=NO)cc2)cc1` [Compound 1b, 1,7-Heptylene-bis-N,N'-4-pyridiniumaldoxime dibromide], under “full dose-response curves, compared with 2-PAM”, the “potency in reactivation relative to 2-PAM (full dose-response curves)” value is “ten-fold more potent”. Besides, under setting [1], the activation at 1 µM turned out to be 61 ± 3.2%.

For `ON=Cc1cc[n+](CCCCCCCC[n+]2ccc(C=NO)cc2)cc1` [Compound 1c, 1,8-Octylene-bis-N,N'-4-pyridiniumaldoxime dibromide], the activation at 1 µM under setting [1] was determined as 44 ± 1.7%. Still for that read-out and setting: for `ON=Cc1cc[n+](CCCCCCCCC[n+]2ccc(C=NO)cc2)cc1` [Compound 1d, 1,9-Nonylene-bis-N,N'-4-pyridiniumaldoxime dibromide] the value was 31 ± 2.3%. For the molecule `C[n+]1ccccc1C=NO` [Compound 2-PAM, 2-pralidoxime, reference compound], under setting [1], the “Percentages of AChE reactivation” value stood at 17 ± 2.8% and the activation at 1 µM was 17%. Consider `ON=Cc1cccc[n+]1CCCCCC[n+]1ccccc1C=NO` [Compound 3a, 1,6-Hexylene-bis-N,N'-2-pyridinium aldoxime dichloride], for which, under setting [1], the activation at 1 µM was determined as 67 ± 0.8%. The same measure, in the same setting: for `ON=Cc1cccc[n+]1CCCCCCC[n+]1ccccc1C=NO` [Compound 3b, 1,7-Heptylene-bis-N,N'-2-pyridiniumaldoxime dichloride] the value was 80 ± 3.7%. On the same count and under the same terms, under `ON=Cc1cccc[n+]1CCCCCCCC[n+]1ccccc1C=NO` [Compound 3c, 1,8-Octylene-bis-N,N'-2-pyridiniumaldoxime dichloride] stands 69 ± 4.7%; under `ON=Cc1cccc[n+]1CCCCCCCCC[n+]1ccccc1C=NO` [Compound 3d, 1,9-Nonylene-bis-N,N'-2-pyridiniumaldoxime dichloride], 58 ± 0.5%.
